The values below come from US8394788B2, “Phenylsulfoxyoxazole compound inhibitors of urea transporters” (The Regents of the University of California, priority 2006, dated 2013).

One experiment concerns RBC urea transport. As to conditions: 23° C.; cited from earlier work.
For the next experiment, the target named is T1, UT-B (Homo sapiens, UniProt Q13336).
T1 sequence (Q13336 1-389): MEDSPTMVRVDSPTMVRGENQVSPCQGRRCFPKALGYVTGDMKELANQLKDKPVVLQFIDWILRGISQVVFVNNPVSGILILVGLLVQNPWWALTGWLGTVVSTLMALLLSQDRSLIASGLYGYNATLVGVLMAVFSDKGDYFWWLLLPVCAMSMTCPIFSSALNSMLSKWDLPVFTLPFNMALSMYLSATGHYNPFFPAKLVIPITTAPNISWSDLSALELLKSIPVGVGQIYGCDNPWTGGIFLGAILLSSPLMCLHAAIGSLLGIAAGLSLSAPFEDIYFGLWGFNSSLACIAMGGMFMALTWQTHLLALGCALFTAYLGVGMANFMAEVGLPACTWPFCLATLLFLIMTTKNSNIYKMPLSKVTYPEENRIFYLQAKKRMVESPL
As to the kind of experiment: RBC lysis assay (human RBCs, acetamide-loaded).

Structures are written as SMILES.

Protocol for UT-B: An RBC lysis assay was developed in an automated, 96-well format high throughput format and optimized for identification and characterization of small-molecule UT-B inhibitors. Inhibition of UT-B mediated transport of urea by compounds was indicated by increased RBC lysis when urea- or acetamide-loaded RBCs were rapidly diluted into PBS (see FIG. 1).
RBC suspensions were maintained at room temperature for up to 2 hr by periodic pipette mixing. […] After 6 min incubation, 20 μL of the RBC suspension was added rapidly to each well of a 96-well black-walled plate (COSTAR, Corning, N.Y.) containing 180 μL isosmolar buffer (PBS containing 1% DMSO) in each well. Vigorous mixing was achieved by repeated pipetting.
Absorbance values were stable for at least 1 hr.
The percentage of RBC lysis in each test well of a given plate was calculated using control values from the same plate as follows: % lysis=100%(Aneg−Atest)/(Aneg−Apos), where Atest is the absorbance value from a test well. During assay optimization, some test wells were incubated with the non-specific UT-B inhibitor phloretin (0.7 mM, dissolved at 100× in DMSO stock solution) as an additional positive control.
These compounds were tested against human and mouse UT-B using the RBC lysis assay. […] EC50 was calculated by non-linear regression to the equation: % lysis=% lysismin+(% lysismax:[inh]^H)/(EC50^H+[inh]^H), where [inh] is inhibitor concentration and H is the Hill coefficient.

Consider `CNC(N)=O` [N-methylurea], for which the apparent affinity result in the experiment on RBC urea transport is listed as “approximately 100 mM”. As to `NC(N)=O` [urea], in the experiment on RBC urea transport, the apparent affinity entry is “approximately 200 mM”. As for `NC(=O)CSc1oc(-c2ccccc2)nc1S(=O)(=O)c1ccc(Cl)cc1` [ureainh-102, 2-(4-(4-chlorophenylsulfonyl)-2-phenyloxazol-5-ylthio)acetamide], the EC50 on UT-B was found to be 40 nM.

Take `Cc1ccc(S(=O)(=O)c2nc(-c3ccccc3)oc2SCC(N)=O)cc1` [ureainh-103, 2-(2-phenyl-4-tosyloxazol-5-ylthio)acetamide]: it took 100 nM to reach a half-maximal effect on UT-B (EC50). In turn, `NC(=O)CSc1oc(-c2ccccc2)nc1S(=O)(=O)c1ccccc1` [ureainh-104, 2-(2-phenyl-4-(phenylsulfonyl)oxazol-5-ylthio)acetamide] registered an EC50 at UT-B of 1000 nM. With `Cc1ccc(S(=O)(=O)c2nc(-c3ccc(F)cc3)oc2SCC(N)=O)cc1` [ureainh-105, 2-(2-(4-fluorophenyl)-4-tosyloxazol-5-ylthio)acetamide], the EC50 on UT-B was 100 nM. Molecule `NC(=O)CSc1oc(-c2ccc(F)cc2)nc1S(=O)(=O)c1ccc(Cl)cc1` [ureainh-106, 2-(4-(4-chlorophenylsulfonyl)-2-(4-fluorophenyl)oxazol-5-ylthio)acetamide] came in with an EC50 on UT-B of 200 nM. This EC50 lies about 2-fold higher than the previous one. `NC(=O)CSc1oc(-c2ccc(F)cc2)nc1S(=O)(=O)c1ccc(F)cc1` [ureainh-107, 2-(2-(4-fluorophenyl)-4-(4-fluorophenylsulfonyl)oxazol-5-ylthio)acetamide] displayed an EC50 on UT-B of 6000 nM.

On UT-B, `NC(=O)CSc1oc(-c2ccc(F)cc2)nc1S(=O)(=O)c1ccccc1` [ureainh-108, 2-(2-(4-fluorophenyl)-4-(phenylsulfonyl)oxazol-5-ylthio)acetamide] returned an EC50 of 15000 nM. On the same count and under the same terms, the same measure for `Cc1ccc(-c2nc(S(=O)(=O)c3ccc(Br)cc3)c(SCC(N)=O)o2)cc1` [ureainh-109, 2-(4-(4-bromophenylsulfonyl)-2-p-tolyloxazol-5-ylthio)acetamide]: 200 nM; for `Cc1ccc(-c2nc(S(=O)(=O)c3ccc(C)cc3)c(SCC(N)=O)o2)cc1` [ureainh-110, 2-(2-p-tolyl-4-tosyloxazol-5-ylthio)acetamide]: 1000 nM; for `Cc1ccc(-c2nc(S(=O)(=O)c3ccc(Cl)cc3)c(SCC(N)=O)o2)cc1` [ureainh-111, 2-(4-(4-chlorophenylsulfonyl)-2-p-tolyloxazol-5-ylthio)acetamide]: 1000 nM. The same measure, in the same setting: under `Cc1ccc(-c2nc(S(=O)(=O)c3ccccc3)c(SCC(N)=O)o2)cc1` [ureainh-112, 2-(4-(phenylsulfonyl)-2-p-tolyloxazol-5-ylthio)acetamide] stands 15000 nM; under `NC(=O)CSc1oc(-c2cccs2)nc1S(=O)(=O)c1ccc(Cl)cc1` [ureainh-113, 2-(4-(4-chlorophenylsulfonyl)-2-(thiophen-2-yl)oxazol-5-ylthio)acetamide], 20 nM. At UT-B, `Cc1ccc(S(=O)(=O)c2nc(-c3cccs3)oc2SCC(N)=O)cc1` [ureainh-114, 2-(2-(thiophen-2-yl)-4-tosyloxazol-5-ylthio)acetamide] displayed an EC50 of 500 nM. At UT-B, `NC(=O)CSc1oc(-c2cccs2)nc1S(=O)(=O)c1ccc(F)cc1` [ureainh-115, 2-(4-(4-fluorophenylsulfonyl)-2-(thiophen-2-yl)oxazol-5-ylthio)acetamide] registered an EC50 of 600 nM. `NC(=O)CSc1oc(-c2cccs2)nc1S(=O)(=O)c1ccccc1` [ureainh-116, 2-(4-(phenylsulfonyl)-2-(thiophen-2-yl)oxazol-5-ylthio)acetamide]: the EC50 on UT-B came out at 1000 nM.

In the case of `NC(=O)CSc1oc(-c2ccco2)nc1S(=O)(=O)c1ccc(Cl)cc1` [ureainh-117, 2-(4-(4-chlorophenylsulfonyl)-2-(furan-2-yl)oxazol-5-ylthio)acetamide], the response on UT-B was half-maximal at 100 nM (EC50). Compared with the last molecule, the EC50 is about 10-fold lower. Turning to `NC(=O)CSc1oc(-c2ccco2)nc1S(=O)(=O)c1ccc(Br)cc1` [ureainh-118, 2-(4-(4-bromophenylsulfonyl)-2-(furan-2-yl)oxazol-5-ylthio)acetamide], the EC50 at UT-B is 200 nM. Compared with the last molecule, the EC50 is about 2-fold higher. On to `Cc1ccc(S(=O)(=O)c2nc(-c3ccco3)oc2SCC(N)=O)cc1` [ureainh-119, 2-(2-(furan-2-yl)-4-tosyloxazol-5-ylthio)acetamide], for which, on UT-B, the EC50 came to 1000 nM. Against the preceding molecule, the EC50 is about 5-fold higher.

On to `O=S(=O)(c1ccc(Cl)cc1)c1nc(-c2ccccc2F)oc1NCc1ccccc1` [ureainh-120, N-benzyl-4-(4-chlorophenylsulfonyl)-2-(2-fluorophenyl)oxazol-5-amine], for which the EC50 on UT-B was determined as 1000 nM. On the same count and under the same terms, under `O=C(CSc1oc(-c2ccccc2)nc1S(=O)(=O)c1ccc(Br)cc1)NCc1ccco1` [ureainh-121, 2-(4-(4-bromophenylsulfonyl)-2-phenyloxazol-5-ylthio)-N-(furan-2-ylmethyl)acetamide] stands 4000 nM; under `O=C(CSc1oc(-c2ccccc2)nc1S(=O)(=O)c1ccc(Cl)cc1)NCc1ccco1` [ureainh-122, 2-(4-(4-chlorophenylsulfonyl)-2-phenyloxazol-5-ylthio)-N-(furan-2-ylmethyl)acetamide], 15000 nM. As to `CN(C)c1oc(-c2ccccc2Cl)nc1S(=O)(=O)c1ccccc1` [ureainh-123, 2-(2-chlorophenyl)-N,N-dimethyl-4-(phenylsulfonyl)oxazol-5-amine], it took 5000 nM to reach a half-maximal effect on UT-B (EC50).

At UT-B, `O=S(=O)(c1ccccc1)c1nc(-c2ccccc2F)oc1N1CCOCC1` [ureainh-124, 4-(2-(2-fluorophenyl)-4-(phenylsulfonyl)oxazol-5-yl)morpholine] came in with an EC50 of 7000 nM. In the case of `Cc1ccc(S(=O)(=O)c2nc(-c3ccccc3Cl)oc2N2CCOCC2)cc1` [ureainh-125, 4-(2-(2-chlorophenyl)-4-tosyloxazol-5-yl)morpholine], the EC50 on UT-B was 11000 nM. On UT-B, `COc1ccccc1-c1nc(S(=O)(=O)c2ccccc2)c(N2CCCCCC2)o1` [ureainh-126, 5-(azepan-1-yl)-2-(2-methoxyphenyl)-4-(phenylsulfonyl)oxazole] showed a half-maximal effective concentration (EC50) of 10000 nM. On the same count and under the same terms, under `Cc1ccc(-c2nc(S(=O)(=O)c3ccccc3)c(N3CCCCCC3)o2)cc1` [ureainh-127, 5-(azepan-1-yl)-4-(phenylsulfonyl)-2-p-tolyloxazole] stands 10000 nM. The molecule `O=S(=O)(c1ccccc1)c1nc(-c2ccc(F)cc2)oc1N1CCCCCC1` [ureainh-128, 5-(azepan-1-yl)-2-(4-fluorophenyl)-4-(phenylsulfonyl)oxazole] had an EC50 on UT-B of 10000 nM. In turn, `CSc1oc(-c2ccco2)nc1S(=O)(=O)c1ccc(Cl)cc1` [ureainh-129, 4-(4-chlorophenylsulfonyl)-2-(furan-2-yl)-5-(methylthio)oxazole] gave an EC50 on UT-B of 20000 nM. `CSc1[nH]c(-c2ccc(C)cc2)nc1S(=O)(=O)c1ccccc1` [ureainh-130, 5-(methylthio)-4-(phenylsulfonyl)-2-p-tolyl-1H-imidazole]: at UT-B, the response was half-maximal at 2000 nM (EC50). Against the preceding molecule, the EC50 is about 10-fold lower. Turning to `Cc1ccc(S(=O)(=O)c2nc(-c3ccccc3)[nH]c2S)cc1` [ureainh-131, 2-phenyl-4-tosyl-1H-imidazole-5-thiol], the midpoint of the response at UT-B, the EC50, lay at 6000 nM. This EC50 is about 3-fold higher than that of the molecule before. The same measure, in the same setting: the same measure for `O=C(Sc1[nH]c(-c2ccccc2)nc1S(=O)(=O)c1ccccc1)c1ccccc1` [ureainh-132, S-2-phenyl-4-(phenylsulfonyl)-1H-imidazol-5-yl benzothioate]: 7000 nM.
